Laboratory results taken from patent US20140309280A1, “ASSAYS FOR MICRO-RNA-182 AS A BIOMARKER FOR MUSCLE ATROPHY AND THERAPEUTIC APPLICATIONS” (EMORY UNIVERSITY, priority 2013, published 2014).

Columns and labels:
gastrocnemius muscle = assay: Streptozotocin diabetes model of muscle atrophy: FoxO3 mRNA and miR-182 in gastrocnemius muscle; assay type: in vivo; conditions: rats, STZ 125 mg/kg single intravenous injection, third day; for decrease of miR-182 in muscle: vs controls
Experimental: (§1) FoxO3 mRNA (Panels A and C) and miR-182 (Panels B and D) were measured in either cells treated with Dex (1 μM) for 6 h (Panels A and B) or in gastrocnemius muscles of either control or streptozotocin-injected, acutely diabetic rats (Panels C and D). Results are reported as the mean±SEM of the fold-change of the respective control values.
Whether there is a similar relationship between FoxO3 and miR-182 expression was investigated in vivo in skeletal muscle during atrophy. STZ-induced diabetes mellitus causes muscle atrophy and responses (e.g., increased atrogin-1 expression) that are consistent with FoxO3 activation. Therefore, FoxO3 expression was evaluated during STZ-induced diabetes mellitus by measuring FoxO3 mRNA. FoxO3 mRNA was increased 75% (FIG. 2D) whereas the level of miR-182 was decreased 43% (P<0.05) (FIG. 2D).
Male rats (˜150 gm) received a single intravenous injection of STZ (125 mg/kg) in citrate buffer. STZ-injected and control rats were pair-fed and on the third day after injection the animals were anesthetized, and the gastrocnemius muscle was harvested. Food was withheld during the night before the tissue harvest to avoid the confounding influences of variable food intake on skeletal muscle protein metabolism. All animal studies were approved by the Emory Institutional Animal Care and Use Committee (IACUC).

C2C12 myotubes [1] = assay: FoxO3 mRNA and intracellular miR-182 in C2C12 myotubes treated with Dex to induce atrophy; assay type: cell-based, Mouse; conditions: Dex 1 μM, 6 hours
Experimental: as §1
To test this, C2C12 myotubes were treated with dexamethasone (Dex), a synthetic glucocorticoid, which induces atrophy, in part, by increasing FoxO3 activity in C2C12 myotubes. […] Simultaneously, the amount of intracellular miR-182 decreased 44% (FIG. 2B).
Mouse C2C12 myoblasts (American Type Culture Collection, Manassas, Va.) were cultured in growth media [Dulbecco modified Eagle medium plus 10% fetal bovine serum (Atlanta Biologicals, Lawrenceville, Ga.) and 1% penicillin and streptomycin (Invitrogen, Carlsbad, Calif.)] and studied between passage 3 and 7. Myoblasts were grown to ˜95% confluence in a 6-well plate and then differentiated into myotubes by replacing growth media with differentiation media (DMEM supplemented with 2% fetal bovine serum and 1% PS) for 3 days. In some experiments, myotubes were treated with 1 μM Dex for 6 hours before being harvested.

C2C12 myotubes [2] = assay: miR-182 in media exosomes released from C2C12 myotubes after Dex; assay type: cell-based, Mouse; conditions: Dex 6 h
Experimental: Fresh differentiation media containing 100 nM Dex or vehicle was added to myotubes for 6 h. Afterwards, RNA was prepared from isolated media exosomes and miR-182, along U6 controls, was measured.
One mechanism by which microRNAs are protected from degradation is through incorporation into protective exosomes. This has led some to propose that the relative abundance patterns of microRNAs in various tissues and fluids as well as exosomes and other microvesicles are a reflection of underlying pathophysiological processes. Dex administration enhances the exosomal packaging and release of two atrophy-related microRNAs (miR-1 and miR-23a) into the media of C2C12 myotubes. This led us to test whether miR-182 is incorporated into exosomes that are released from myotubes. The amount of miR-182 in exosomes, normalized to U6 small nuclear RNA, is increased 95% in exosomes following Dex treatment to myotubes (FIG. 4). […]
To quantify exosomal microRNA, exosome-associated RNA, including microRNA, was isolated using a urine exosome RNA isolation kit (Norgen Biotek, Thorolod, ON, Canada) according to the manufacturer's instructions for isolating RNA from extracellular fluids. Subsequent quantitative PCR (qPCR) was performed.

SMILES	decrease of miR-182 in muscle (gastrocnemius muscle; P<0.05)	decrease of miR-182 in muscle (gastrocnemius muscle; P<0.05, listed as STZ)	increase of FoxO3 mRNA in muscle (gastrocnemius muscle; vs pair-fed controls)	decrease of intracellular miR-182 (C2C12 myotubes [1])	increase of FoxO3 mRNA (C2C12 myotubes [1])	decrease of intracellular miR-182 (C2C12 myotubes [1]; listed as dexamethasone)	increase of miR-182 in exosomes, normalized to U6 small nuclear RNA (C2C12 myotubes [2])
CN(N=O)C(=O)N[C@H]1C(O)O[C@H](CO)[C@@H](O)[C@@H]1O (mixture of isomers) [streptozotocin]	44%	43%	75%	–	–	–	–
C[C@@H]1C[C@H]2[C@@H]3CCC4=CC(=O)C=C[C@]4(C)[C@@]3(F)[C@@H](O)C[C@]2(C)[C@@]1(O)C(=O)CO [Dexamethasone, dexamethasone]	–	–	–	63%	133%	44%	95%
